{
  "source": "the kinase profiling compilation of Christmann-Franck et al. (2016)",
  "assay_in_all_cases": "radiometric filter-binding kinase assay",
  "key": {"[1]": {"target": "PHKG1 (human) (UniProt Q16816)", "sequence (Q16816 whole entry, looked up)": "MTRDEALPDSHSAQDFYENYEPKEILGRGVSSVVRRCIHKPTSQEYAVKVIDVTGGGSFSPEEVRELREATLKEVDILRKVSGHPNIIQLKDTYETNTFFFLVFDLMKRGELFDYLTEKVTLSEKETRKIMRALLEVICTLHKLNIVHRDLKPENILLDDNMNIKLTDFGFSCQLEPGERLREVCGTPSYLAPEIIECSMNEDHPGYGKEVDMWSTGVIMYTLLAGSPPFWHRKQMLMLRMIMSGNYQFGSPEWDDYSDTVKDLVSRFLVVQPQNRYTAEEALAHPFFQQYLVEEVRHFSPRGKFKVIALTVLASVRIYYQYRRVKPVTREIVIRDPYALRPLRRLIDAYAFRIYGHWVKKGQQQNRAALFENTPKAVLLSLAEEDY"}, "[2]": {"target": "RIPK2 (human) (UniProt O43353)"}, "[3]": {"target": "MINK1 (human) (UniProt Q8N4C8)"}, "[4]": {"system": "PRKAA1 or PRKAA2 (rat)", "conditions": "accession and sequence are those of the human protein"}, "[5]": {"target": "INSRR (human) (UniProt P14616)", "conditions": "compound 0.1 µM"}, "[6]": {"target": "MAPK15 (human) (UniProt Q8TD08)"}, "[7]": {"target": "SRPK1 (human) (UniProt Q96SB4)"}, "[8]": {"target": "PRKCA (human) (UniProt P17252)"}, "[9]": {"target": "MARK2 (human) (UniProt Q7KZI7)"}, "[10]": {"target": "JAK2 JH1 JH2 (human) (UniProt O60674)"}, "[11]": {"target": "MARK1 (human) (UniProt Q9P0L2)", "conditions": "compound 0.1 µM"}, "[12]": {"target": "MKNK1 (human) (UniProt Q9BUB5)", "conditions": "compound 1.0 µM"}, "[13]": {"target": "EPHA2 (human) (UniProt P29317)", "sequence (P29317 whole entry, looked up)": "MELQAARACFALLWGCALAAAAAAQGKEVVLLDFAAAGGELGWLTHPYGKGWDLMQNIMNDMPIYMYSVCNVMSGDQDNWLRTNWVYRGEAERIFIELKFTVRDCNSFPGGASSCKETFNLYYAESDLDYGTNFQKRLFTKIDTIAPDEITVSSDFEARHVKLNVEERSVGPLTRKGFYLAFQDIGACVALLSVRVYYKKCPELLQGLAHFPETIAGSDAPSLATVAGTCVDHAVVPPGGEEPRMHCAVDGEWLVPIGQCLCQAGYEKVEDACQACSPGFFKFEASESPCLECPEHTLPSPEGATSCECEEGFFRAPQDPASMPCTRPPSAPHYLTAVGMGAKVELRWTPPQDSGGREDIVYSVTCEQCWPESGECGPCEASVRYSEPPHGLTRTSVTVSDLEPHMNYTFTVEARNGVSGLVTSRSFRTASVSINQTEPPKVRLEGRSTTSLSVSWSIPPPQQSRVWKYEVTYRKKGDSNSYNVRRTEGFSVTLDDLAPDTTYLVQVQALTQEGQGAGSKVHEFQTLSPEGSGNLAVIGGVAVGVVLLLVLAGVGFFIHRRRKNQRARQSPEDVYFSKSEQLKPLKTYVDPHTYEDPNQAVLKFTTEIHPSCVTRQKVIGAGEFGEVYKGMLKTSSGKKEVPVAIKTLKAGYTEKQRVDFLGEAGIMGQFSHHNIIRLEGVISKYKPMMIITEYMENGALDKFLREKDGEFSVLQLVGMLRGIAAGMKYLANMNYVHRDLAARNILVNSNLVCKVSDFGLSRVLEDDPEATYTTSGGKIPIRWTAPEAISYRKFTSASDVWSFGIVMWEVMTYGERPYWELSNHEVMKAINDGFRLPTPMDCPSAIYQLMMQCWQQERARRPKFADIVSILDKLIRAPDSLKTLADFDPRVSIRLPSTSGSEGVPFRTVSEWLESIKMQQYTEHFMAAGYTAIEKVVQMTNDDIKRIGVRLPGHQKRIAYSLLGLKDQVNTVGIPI"}, "[14]": {"target": "CaMK1 (human) (UniProt Q14012)"}, "[15]": {"target": "MST4 (human) (UniProt Q9P289)"}, "[16]": {"target": "MAPKAPK2 (human) (UniProt P49137)", "sequence (P49137 whole entry, looked up)": "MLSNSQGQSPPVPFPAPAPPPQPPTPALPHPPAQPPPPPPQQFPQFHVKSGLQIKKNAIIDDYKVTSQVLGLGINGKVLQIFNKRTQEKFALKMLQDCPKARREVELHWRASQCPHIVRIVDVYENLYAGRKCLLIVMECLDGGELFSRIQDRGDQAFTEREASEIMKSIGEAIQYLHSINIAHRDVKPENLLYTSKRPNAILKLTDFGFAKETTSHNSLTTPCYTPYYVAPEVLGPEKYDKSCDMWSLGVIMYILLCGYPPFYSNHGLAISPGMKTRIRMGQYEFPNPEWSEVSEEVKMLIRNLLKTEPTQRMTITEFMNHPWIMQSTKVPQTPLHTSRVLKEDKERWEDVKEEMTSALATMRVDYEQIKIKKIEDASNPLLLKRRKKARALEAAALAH"}, "[17]": {"target": "CSK (human) (UniProt P41240)"}, "[18]": {"target": "CDK2 CCNA2 (human) (UniProt P20248+P24941)"}, "[19]": {"target": "CAMKK2 (human) (UniProt Q96RR4)", "conditions": "compound 1.0 µM"}, "[20]": {"target": "NEK6 (human) (UniProt Q9HC98)"}, "[21]": {"target": "BRSK1 (human) (UniProt Q8TDC3)", "sequence (Q8TDC3 whole entry, looked up)": "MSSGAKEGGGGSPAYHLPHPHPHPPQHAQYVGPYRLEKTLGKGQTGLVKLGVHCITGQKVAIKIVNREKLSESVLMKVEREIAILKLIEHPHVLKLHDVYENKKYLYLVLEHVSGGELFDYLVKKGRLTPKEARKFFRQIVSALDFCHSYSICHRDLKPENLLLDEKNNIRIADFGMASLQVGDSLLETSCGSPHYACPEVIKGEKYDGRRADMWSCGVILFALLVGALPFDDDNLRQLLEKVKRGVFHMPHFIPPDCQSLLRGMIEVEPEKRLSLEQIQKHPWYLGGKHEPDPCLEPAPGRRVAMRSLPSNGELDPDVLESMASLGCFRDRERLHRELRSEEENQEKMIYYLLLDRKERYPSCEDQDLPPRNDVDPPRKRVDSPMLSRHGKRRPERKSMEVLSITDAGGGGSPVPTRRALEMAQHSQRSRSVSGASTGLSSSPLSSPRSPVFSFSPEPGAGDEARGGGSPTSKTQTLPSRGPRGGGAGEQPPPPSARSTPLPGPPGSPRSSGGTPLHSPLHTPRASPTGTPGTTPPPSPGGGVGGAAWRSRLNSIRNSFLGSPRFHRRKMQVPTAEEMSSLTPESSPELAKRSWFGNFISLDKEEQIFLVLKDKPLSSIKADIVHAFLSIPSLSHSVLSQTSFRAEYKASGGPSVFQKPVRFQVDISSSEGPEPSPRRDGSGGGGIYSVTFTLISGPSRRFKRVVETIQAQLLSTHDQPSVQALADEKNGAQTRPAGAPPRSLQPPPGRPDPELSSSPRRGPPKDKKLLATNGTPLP"}, "[22]": {"target": "MAP2K1 (human) (UniProt Q02750)"}, "[23]": {"target": "HIPK3 (human) (UniProt Q9H422)"}, "[24]": {"target": "DYRK2 (human) (UniProt Q92630)"}, "[25]": {"target": "ERBB4 (human) (UniProt Q15303)", "sequence (Q15303 whole entry, looked up)": "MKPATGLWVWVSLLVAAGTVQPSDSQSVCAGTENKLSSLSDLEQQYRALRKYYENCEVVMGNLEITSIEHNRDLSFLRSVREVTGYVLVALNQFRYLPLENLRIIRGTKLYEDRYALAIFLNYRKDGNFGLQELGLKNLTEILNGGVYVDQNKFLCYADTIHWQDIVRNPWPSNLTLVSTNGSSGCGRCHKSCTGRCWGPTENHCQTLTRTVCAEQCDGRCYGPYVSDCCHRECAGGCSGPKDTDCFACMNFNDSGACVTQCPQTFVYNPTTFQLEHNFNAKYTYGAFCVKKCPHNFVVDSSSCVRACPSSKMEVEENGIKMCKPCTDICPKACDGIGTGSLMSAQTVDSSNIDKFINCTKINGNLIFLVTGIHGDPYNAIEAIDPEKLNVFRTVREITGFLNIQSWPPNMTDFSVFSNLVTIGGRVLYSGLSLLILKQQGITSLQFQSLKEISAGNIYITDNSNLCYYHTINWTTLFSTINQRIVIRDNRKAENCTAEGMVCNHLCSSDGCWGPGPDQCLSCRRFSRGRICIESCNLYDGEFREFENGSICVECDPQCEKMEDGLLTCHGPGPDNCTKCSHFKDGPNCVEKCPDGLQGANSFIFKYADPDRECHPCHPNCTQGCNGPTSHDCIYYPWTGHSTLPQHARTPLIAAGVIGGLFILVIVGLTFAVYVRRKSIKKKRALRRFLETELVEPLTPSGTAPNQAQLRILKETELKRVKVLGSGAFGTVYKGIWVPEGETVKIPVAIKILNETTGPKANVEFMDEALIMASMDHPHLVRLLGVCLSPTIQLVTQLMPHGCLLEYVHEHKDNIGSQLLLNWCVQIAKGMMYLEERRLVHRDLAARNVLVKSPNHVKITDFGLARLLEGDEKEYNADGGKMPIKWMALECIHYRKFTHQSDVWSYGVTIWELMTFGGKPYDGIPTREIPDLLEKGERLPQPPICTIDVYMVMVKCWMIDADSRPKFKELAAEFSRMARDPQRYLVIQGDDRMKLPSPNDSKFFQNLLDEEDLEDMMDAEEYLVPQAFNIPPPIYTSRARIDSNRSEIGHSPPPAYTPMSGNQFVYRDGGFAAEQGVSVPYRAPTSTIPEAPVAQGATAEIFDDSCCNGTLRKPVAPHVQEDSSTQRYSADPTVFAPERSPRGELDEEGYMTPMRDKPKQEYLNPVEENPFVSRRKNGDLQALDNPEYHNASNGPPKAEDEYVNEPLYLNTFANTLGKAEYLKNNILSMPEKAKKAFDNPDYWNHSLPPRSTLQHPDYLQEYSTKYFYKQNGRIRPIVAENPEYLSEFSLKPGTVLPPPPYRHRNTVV"}, "[26]": {"target": "RPS6KA5 KD1 KD2 (human) (UniProt O75582)"}, "[27]": {"target": "EPHB2 (human) (UniProt P29323)"}, "[28]": {"target": "PAK7 (human) (UniProt Q9P286)"}, "[29]": {"target": "NUAK1 (human) (UniProt O60285)", "sequence (O60285 whole entry, looked up)": "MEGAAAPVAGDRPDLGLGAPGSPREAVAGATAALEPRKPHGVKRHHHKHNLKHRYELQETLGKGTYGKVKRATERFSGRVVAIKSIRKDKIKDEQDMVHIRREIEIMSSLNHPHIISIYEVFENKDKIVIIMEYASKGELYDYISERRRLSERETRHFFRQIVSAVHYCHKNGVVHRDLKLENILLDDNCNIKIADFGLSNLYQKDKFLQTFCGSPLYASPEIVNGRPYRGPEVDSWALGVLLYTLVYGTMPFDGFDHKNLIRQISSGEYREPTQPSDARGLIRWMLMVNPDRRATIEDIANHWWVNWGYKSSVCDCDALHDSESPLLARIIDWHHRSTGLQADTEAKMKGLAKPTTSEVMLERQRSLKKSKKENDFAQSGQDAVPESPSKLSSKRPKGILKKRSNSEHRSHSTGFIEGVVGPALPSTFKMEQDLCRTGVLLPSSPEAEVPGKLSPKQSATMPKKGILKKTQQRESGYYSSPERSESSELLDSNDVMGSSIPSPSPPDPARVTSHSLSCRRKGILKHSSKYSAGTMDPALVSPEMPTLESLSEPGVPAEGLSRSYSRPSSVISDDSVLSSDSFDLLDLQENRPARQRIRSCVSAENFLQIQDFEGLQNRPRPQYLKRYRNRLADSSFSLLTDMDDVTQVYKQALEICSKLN"}, "[30]": {"target": "EPHA4 (human) (UniProt P54764)"}, "[31]": {"target": "NEK2 (human) (UniProt P51955)", "sequence (P51955 whole entry, looked up)": "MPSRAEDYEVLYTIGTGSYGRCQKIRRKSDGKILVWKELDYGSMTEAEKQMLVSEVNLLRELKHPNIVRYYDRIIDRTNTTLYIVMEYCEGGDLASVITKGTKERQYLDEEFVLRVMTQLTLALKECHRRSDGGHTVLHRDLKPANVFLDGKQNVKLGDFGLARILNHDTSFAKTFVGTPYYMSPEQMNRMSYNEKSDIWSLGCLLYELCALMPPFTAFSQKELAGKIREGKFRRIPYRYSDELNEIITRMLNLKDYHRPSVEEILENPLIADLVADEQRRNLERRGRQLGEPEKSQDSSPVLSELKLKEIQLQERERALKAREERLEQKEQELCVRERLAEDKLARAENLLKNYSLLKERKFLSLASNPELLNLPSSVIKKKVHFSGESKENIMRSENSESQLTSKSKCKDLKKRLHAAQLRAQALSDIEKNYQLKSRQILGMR"}, "[32]": {"system": "LCK (mouse)", "conditions": "accession and sequence are those of the human protein"}, "[33]": {"target": "INSR (human) (UniProt P06213)"}, "[34]": {"target": "PRKACA (human) (UniProt P17612)"}},
  "data": [
    {"smiles": "Cc1cc(NC(=O)c2cccc(NC(=O)/C=C/CN(C)C)c2)ccc1Nc1nccc(-c2cccnc2)n1", "values": [
      {"measurement": "residual activity", "setting": "[1]; compound 0.1 µM", "result": 85, "unit": "%"},
      {"measurement": "residual activity", "setting": "[1]; compound 1.0 µM", "result": 86, "unit": "%"},
      {"measurement": "residual activity", "setting": "[2]; compound 0.1 µM", "result": 82, "unit": "%"},
      {"measurement": "residual activity", "setting": "[2]; compound 1.0 µM", "result": 49, "unit": "%"},
      {"measurement": "residual activity", "setting": "[3]; compound 0.1 µM", "result": 94, "unit": "%"},
      {"measurement": "residual activity", "setting": "[3]; compound 1.0 µM", "result": 78, "unit": "%"},
      {"measurement": "residual activity", "setting": "[4]; compound 0.1 µM", "result": 101, "unit": "%"},
      {"measurement": "residual activity", "setting": "[4]; compound 1.0 µM", "result": 77, "unit": "%"},
      {"measurement": "residual activity", "setting": "[5]", "result": 93, "unit": "%"},
      {"measurement": "residual activity", "setting": "[6]; compound 0.1 µM", "result": 90, "unit": "%"},
      {"measurement": "residual activity", "setting": "[6]; compound 1.0 µM", "result": 64, "unit": "%"},
      {"measurement": "residual activity", "setting": "[7]; compound 0.1 µM", "result": 97, "unit": "%"},
      {"measurement": "residual activity", "setting": "[7]; compound 1.0 µM", "result": 84, "unit": "%"},
      {"measurement": "residual activity", "setting": "[8]; compound 0.1 µM", "result": 93, "unit": "%"},
      {"measurement": "residual activity", "setting": "[8]; compound 1.0 µM", "result": 90, "unit": "%"},
      {"measurement": "residual activity", "setting": "[9]; compound 0.1 µM", "result": 99, "unit": "%"},
      {"measurement": "residual activity", "setting": "[9]; compound 1.0 µM", "result": 85, "unit": "%"},
      {"measurement": "residual activity", "setting": "[10]; compound 0.1 µM", "result": 100, "unit": "%"},
      {"measurement": "residual activity", "setting": "[10]; compound 1.0 µM", "result": 94, "unit": "%"},
      {"measurement": "residual activity", "setting": "[11]", "result": 114, "unit": "%"},
      {"measurement": "residual activity", "setting": "[12]", "result": 88, "unit": "%"},
      {"measurement": "residual activity", "setting": "[13]; compound 0.1 µM", "result": 118, "unit": "%"},
      {"measurement": "residual activity", "setting": "[13]; compound 1.0 µM", "result": 111, "unit": "%"},
      {"measurement": "residual activity", "setting": "[14]; compound 0.1 µM", "result": 92, "unit": "%"},
      {"measurement": "residual activity", "setting": "[14]; compound 1.0 µM", "result": 86, "unit": "%"},
      {"measurement": "residual activity", "setting": "[15]; compound 0.1 µM", "result": 96, "unit": "%"},
      {"measurement": "residual activity", "setting": "[15]; compound 1.0 µM", "result": 79, "unit": "%"},
      {"measurement": "residual activity", "setting": "[16]; compound 0.1 µM", "result": 102, "unit": "%"},
      {"measurement": "residual activity", "setting": "[16]; compound 1.0 µM", "result": 100, "unit": "%"},
      {"measurement": "residual activity", "setting": "[17]; compound 0.1 µM", "result": 110, "unit": "%"},
      {"measurement": "residual activity", "setting": "[17]; compound 1.0 µM", "result": 93, "unit": "%"},
      {"measurement": "residual activity", "setting": "[18]; compound 0.1 µM", "result": 107, "unit": "%"},
      {"measurement": "residual activity", "setting": "[18]; compound 1.0 µM", "result": 92, "unit": "%"},
      {"measurement": "residual activity", "setting": "[19]", "result": 63, "unit": "%"},
      {"measurement": "residual activity", "setting": "[20]; compound 0.1 µM", "result": 95, "unit": "%"},
      {"measurement": "residual activity", "setting": "[20]; compound 1.0 µM", "result": 87, "unit": "%"},
      {"measurement": "residual activity", "setting": "[21]; compound 0.1 µM", "result": 99, "unit": "%"},
      {"measurement": "residual activity", "setting": "[21]; compound 1.0 µM", "result": 87, "unit": "%"},
      {"measurement": "residual activity", "setting": "[22]; compound 0.1 µM", "result": 107, "unit": "%"},
      {"measurement": "residual activity", "setting": "[22]; compound 1.0 µM", "result": 96, "unit": "%"},
      {"measurement": "residual activity", "setting": "[23]; compound 0.1 µM", "result": 97, "unit": "%"},
      {"measurement": "residual activity", "setting": "[23]; compound 1.0 µM", "result": 90, "unit": "%"},
      {"measurement": "residual activity", "setting": "[24]; compound 0.1 µM", "result": 73, "unit": "%"},
      {"measurement": "residual activity", "setting": "[24]; compound 1.0 µM", "result": 72, "unit": "%"},
      {"measurement": "residual activity", "setting": "[25]; compound 0.1 µM", "result": 102, "unit": "%"},
      {"measurement": "residual activity", "setting": "[25]; compound 1.0 µM", "result": 98, "unit": "%"},
      {"measurement": "residual activity", "setting": "[26]; compound 0.1 µM", "result": 91, "unit": "%"},
      {"measurement": "residual activity", "setting": "[26]; compound 1.0 µM", "result": 80, "unit": "%"},
      {"measurement": "residual activity", "setting": "[27]; compound 0.1 µM", "result": 101, "unit": "%"},
      {"measurement": "residual activity", "setting": "[27]; compound 1.0 µM", "result": 97, "unit": "%"},
      {"measurement": "residual activity", "setting": "[28]; compound 0.1 µM", "result": 100, "unit": "%"},
      {"measurement": "residual activity", "setting": "[28]; compound 1.0 µM", "result": 82, "unit": "%"},
      {"measurement": "residual activity", "setting": "[29]; compound 0.1 µM", "result": 79, "unit": "%"},
      {"measurement": "residual activity", "setting": "[29]; compound 1.0 µM", "result": 49, "unit": "%"},
      {"measurement": "residual activity", "setting": "[30]; compound 0.1 µM", "result": 87, "unit": "%"},
      {"measurement": "residual activity", "setting": "[30]; compound 1.0 µM", "result": 80, "unit": "%"},
      {"measurement": "residual activity", "setting": "[31]; compound 0.1 µM", "result": 105, "unit": "%"},
      {"measurement": "residual activity", "setting": "[31]; compound 1.0 µM", "result": 100, "unit": "%"},
      {"measurement": "residual activity", "setting": "[32]; compound 0.1 µM", "result": 96, "unit": "%"},
      {"measurement": "residual activity", "setting": "[32]; compound 1.0 µM", "result": 92, "unit": "%"},
      {"measurement": "residual activity", "setting": "[33]; compound 0.1 µM", "result": 102, "unit": "%"},
      {"measurement": "residual activity", "setting": "[33]; compound 1.0 µM", "result": 80, "unit": "%"},
      {"measurement": "residual activity", "setting": "[34]; compound 0.1 µM", "result": 105, "unit": "%"},
      {"measurement": "residual activity", "setting": "[34]; compound 1.0 µM", "result": 93, "unit": "%"}
    ]}
  ]
}
